Source: PubChem BioAssay AID1996
Values after ≈ are worked out from the molar mass of the structure shown.

conditions: buffer; pH 7.4; 200.0 µM

| Compound | solubility kinetic |
| --- | --- |
| O=c1[nH]cccc1-c1nc2ccccc2n1Cc1cccc(Cl)c1 | 1.4 µg/mL (≈ 4.17 µM) |
| CC1Oc2ccccc2N(CC(=O)N2CCCCC2)C1=O (stereo unspecified) | > 43.3 µg/mL |
| CC1(C)CC(=O)c2sc(NC(=O)c3ccccc3)nc2C1 | 22.6 µg/mL (≈ 75.2 µM) |
| CC1(C)CC(=O)C(C(N)=NC(=O)c2ccc([N+](=O)[O-])cc2)=C(O)C1 | 0.7 µg/mL (≈ 2.11 µM) |
| CC(C)(C)OC(=O)N1CCN(C(=O)c2cccnc2Cl)CC1 | > 48.9 µg/mL |
| Cc1onc(-c2c(Cl)cccc2Cl)c1NC(=O)NC1CCSC1 (stereo unspecified) | > 55.8 µg/mL |
| CCC(NC(=O)C1CCCC1)c1ccccc1 (stereo unspecified) | > 34.7 µg/mL |
| CCOC(=O)c1c(C)[nH]c(C)c1C=O | > 29.3 µg/mL |
| O=C(CSc1nc2ccccc2o1)NC1CCS(=O)(=O)C1 (stereo unspecified) | > 49 µg/mL |
| O=c1c2ccccc2nc2n1C(CBr)CS2 (stereo unspecified) | > 44.6 µg/mL |
| CC1CCC(C(=O)NC(C(=O)Nc2ccccn2)C(C)C)CC1 (stereo unspecified) | 13.5 µg/mL (≈ 42.5 µM) |
| CC(C)CN=CC1=C(O)c2ccccc2C1=O | 29.5 µg/mL (≈ 129 µM) |
| COc1cc2c(cc1OC)C(COc1ccc(C(C)C)cc1)NCC2 (stereo unspecified) | 35.1 µg/mL (≈ 103 µM) |
| CNC(=O)c1c(NC(=O)c2ccco2)sc2c1CCCC2 | 2.7 µg/mL (≈ 8.87 µM) |
| O=[N+]([O-])c1cc(C(F)(F)F)ccc1N1CCN(CCO)CC1 | > 47.9 µg/mL |
| CCOC(=O)c1sc(Nc2nc(C)cc(C)n2)nc1C | 1.2 µg/mL (≈ 4.1 µM) |
| Clc1ccc(N2CCN(c3ccnc(Cl)n3)CC2)cc1 | 2.3 µg/mL (≈ 7.44 µM) |
| Cl.OC1(C#CCN2CCCC2)CCCCC1 | 34.2 µg/mL |
| Clc1ccc(-c2nsc(N3CCOCC3)n2)c(Cl)c1 | 4 µg/mL (≈ 12.6 µM) |
| COc1ccc(C(CNC(=O)c2ccc3c(c2)CCC3)N(C)C)cc1 (stereo unspecified) | > 50.8 µg/mL |
| COc1ccc(S(=O)(=O)n2cnc3ccccc32)cc1OC | > 47.8 µg/mL |
| CN(CC(=O)O)S(=O)(=O)c1ccc2c(c1)NC(=O)CC(=O)N2 | > 49.1 µg/mL |
| Cc1ccc(Nc2nc(-c3cccnc3)cs2)cc1Cl | 0.3 µg/mL (≈ 0.994 µM) |
| COC(=O)c1c(C)noc1-c1ccc(Cl)cc1 | 1.6 µg/mL (≈ 6.36 µM) |
| O=C(Nc1ccccc1)NC1CCN(Cc2c(F)cccc2Cl)CC1 | 6.8 µg/mL (≈ 18.8 µM) |
| Cc1sc2ncnc(NCC(c3ccccc3)N(C)C)c2c1C (stereo unspecified) | 47.1 µg/mL (≈ 144 µM) |
| O=C(CN1C(=O)NC2(CCCCC2)C1=O)Nc1ccc(N2CCCCC2)cc1 | 10.9 µg/mL (≈ 28.3 µM) |

| Compound | solubility kinetic |
| --- | --- |
| CC1CCCCC1NC(=O)CCCN1C(=O)c2ccccc2C1=O (stereo unspecified) | 15.9 µg/mL (≈ 48.4 µM) |
| COc1ccc(-c2cc(C#N)nc(Cl)n2)cc1 | 1.3 µg/mL (≈ 5.29 µM) |
| O=C(c1ccco1)N1CCN(S(=O)(=O)c2cccc([N+](=O)[O-])c2)CC1 | > 54.8 µg/mL |
| O=C(CCl)Nc1cccc(S(=O)(=O)NC2=NCCCCC2)c1 | > 51.6 µg/mL |
| COc1ccc(S(=O)(=O)N2CCN(C)CC2)c(C)c1 | > 42.7 µg/mL |
| CC1(C)CC(=O)C(N=Nc2cccnc2)=C(O)C1 | > 36.8 µg/mL |
| CC(=O)c1ccc(N2CCN(c3ncccn3)CC2)cc1 | 7.7 µg/mL (≈ 27.3 µM) |
| O=C(c1ccc(Cl)cc1)N1CCCCC(Cl)C1=O (stereo unspecified) | 6.9 µg/mL (≈ 24.1 µM) |
| CSCC[C@H](NC(=O)NC1CCCC1)C(=O)O | > 39.1 µg/mL |
| O=C1CC(c2ccco2)Sc2ccccc2N1 (stereo unspecified) | > 36.8 µg/mL |
| CN(C(=S)Nc1ccc(Oc2ccccc2)cc1)c1ccc(O)cc1 | > 52.6 µg/mL |
| Cc1ccc(S(=O)(=O)N2CCOCC2)cc1C(=O)N1CC(C)CC(C)C1 (stereo unspecified) | 35.9 µg/mL (≈ 94.3 µM) |
| CC(NC(=O)C(=O)Nc1nccs1)c1ccccc1 (stereo unspecified) | 35.4 µg/mL (≈ 129 µM) |
| Cc1ccc(C(=O)NCCCn2ccnc2)cc1C | > 38.6 µg/mL |
| O=c1cc(C(F)(F)F)[nH]c2ccc(C(F)(F)F)cc12 | > 42.2 µg/mL |
| CCCCCCCOc1ccc(C(=O)Nc2cccnc2)cc1 | < 0.3 µg/mL |
| Cn1cc(SCC(=O)NC2CCCC2)c2ccccc21 | > 43.3 µg/mL |
| Cc1ccc(N=CC2=C(O)CC(c3ccccc3Cl)CC2=O)cc1 (stereo unspecified) | < 0.7 µg/mL |
| CCOc1cc(N2CCOCC2)c(OCC)cc1NC(=O)COC(=O)c1c(CC)noc1C | 7 µg/mL (≈ 15.2 µM) |
| Cc1ccc(C23CC4CC(CC(C(=O)N(C)C)(C4)C2)C3)cc1 | 2.4 µg/mL (≈ 8.07 µM) |
| Cl.c1csc(CNCc2ccncc2)c1 | > 36.1 µg/mL |
| CCC(=O)O/N=C(\N)c1ccc(Oc2cc(C)c(Cl)c(C)c2)c([N+](=O)[O-])c1 | < 0.3 µg/mL |
| COc1ccccc1C1CCN(C(=O)c2ccco2)CC1 | 34 µg/mL (≈ 119 µM) |
| COC(=O)c1ccc(N)nc1 | > 22.8 µg/mL |
| C[C@@H]1CC2(CCCC[N+]2(C)C)C[C@H]1C.[I-] | > 48.5 µg/mL |
| COc1ccc(NC(=O)[C@@H]2CCCN2S(=O)(=O)c2ccccc2F)cc1S(=O)(=O)N1CCCCC1 | 37.1 µg/mL (≈ 70.6 µM) |
| O=[N+]([O-])c1ccccc1S(=O)(=O)NC1CC2CCC1C2 (stereo unspecified) | > 44.5 µg/mL |

Other lines, results leading:

| solubility kinetic | Compound |
| --- | --- |
| 2 µg/mL (≈ 5.12 µM) | Cc1cc(C)cc(NC(=O)CN2C(=O)NC(Cc3c[nH]c4ccccc34)C2=O)c1 (stereo unspecified) |
| 35.1 µg/mL (≈ 120 µM) | CCNC(=O)COC(=O)CCNC(=O)c1cccc(C)c1 |
| 15.1 µg/mL (≈ 46.1 µM) | CCOc1ccc(N/C(=N/c2nc(C)cc(C)n2)NC(C)=O)cc1 |
| > 49.9 µg/mL | CN(CC(=O)N1CCCC1)S(=O)(=O)c1ccc2ccccc2c1 |
| > 45.2 µg/mL | COc1ccc(/C=N/NC(=O)c2cc[n+]([O-])cc2)cc1OC |
| 8.3 µg/mL (≈ 20.2 µM) | O=C(CNS(=O)(=O)c1ccc(Cl)cc1)N1CCN(c2ccc(F)cc2)CC1 |
| < 0.7 µg/mL | COc1ccccc1OCCn1cc(C(=O)C(C)C)c2ccccc21 |
| 39.6 µg/mL (≈ 140 µM) | C=CCNC(=S)/N=c1/ccccn1Cc1ccccc1 |
| 4.9 µg/mL (≈ 13.7 µM) | O=C(COC(=O)/C=C/c1ccc(F)cc1)NCc1ccc2c(c1)OCO2 |
| 46.5 µg/mL (≈ 148 µM) | Cc1cccc(OCC(=O)NCCNC(=O)c2cnccn2)c1 |
| 66.9 µg/mL (≈ 140 µM) | COc1ccc(NC(=O)CN2C(=O)NC(C)(c3ccc4c(c3)OCO4)C2=O)cc1S(N)(=O)=O (stereo unspecified) |
| 35.3 µg/mL (≈ 75 µM) | N#Cc1ccc(CN2CCN(C(=O)CNS(=O)(=O)c3ccc4c(c3)OCCCO4)CC2)cc1 |
| 25.3 µg/mL (≈ 84.3 µM) | Nc1c(Br)c(=O)[nH]c(=O)n1-c1ccc(F)cc1 |
| > 48.2 µg/mL | Cc1ccc2c(CC(=O)NC3CCS(=O)(=O)C3)coc2c1C (stereo unspecified) |
| 12.8 µg/mL (≈ 29.7 µM) | CCOc1ccc(S(=O)(=O)NCCC(=O)N2CCC(Cc3ccccc3)CC2)cc1 |
| > 53.3 µg/mL | Cc1ccc(-c2csc(NC(=O)c3ccc(F)cc3)c2C(=O)O)cc1 |
| > 47 µg/mL | COc1ccc(CCC(=O)NC(C)c2ccccc2)cc1OC (stereo unspecified) |
| > 52.3 µg/mL | CC(OC(=O)c1cccnc1Cl)C(=O)Nc1ccc2c(c1)OCO2 (stereo unspecified) |
| 3.4 µg/mL (≈ 9.57 µM) | O=C(NC1CCN(C(=O)NCc2ccccc2)CC1)c1cccc(F)c1 |
| 45.3 µg/mL (≈ 149 µM) | O=C(OCC(=O)N1CCCC1)c1cc(F)c(F)cc1Cl |
| 1.6 µg/mL (≈ 5.14 µM) | COc1cccc(C(=O)Nc2ccc(NC(=O)C3CC3)nc2)c1 |

| solubility kinetic | Compound |
| --- | --- |
| > 44.9 µg/mL | O=C(/C=C/c1ccc(O)c(O)c1)NC(=O)c1ccccc1O |
| 11.7 µg/mL (≈ 36.3 µM) | COc1ccc(C(=O)Nc2cccc3nc(C)ccc23)c(OC)c1 |
| > 50 µg/mL | O=C(CSc1nc2ccccc2c(=O)n1CCCO)NC1CC1 |
| > 46.6 µg/mL | CC(=O)c1cccc(NC(=O)C(NC(C)C)c2ccccc2)c1 (stereo unspecified) |
| > 52 µg/mL | Cc1cccc(NC(=O)CN(CCc2ccccc2)S(C)(=O)=O)c1 |
| < 0.2 µg/mL | COc1ccc(CCn2cnc3c([nH]c4ccccc43)c2=O)cc1 |
| > 45.4 µg/mL | COc1ccc(SCCC(=O)NCc2ccncc2)cc1 |
| < 0.3 µg/mL | O=C1N/C(=C/c2cccs2)C(=O)N1Cc1ccc(F)cc1 |
| 44.4 µg/mL (≈ 134 µM) | COC(=O)c1ccccc1C(=O)N(c1ccccc1)c1ccccc1 |
| 11.2 µg/mL (≈ 34.9 µM) | N/C(=N\OC(=O)c1cc([N+](=O)[O-])ccc1Cl)c1ccccn1 |
| > 44.8 µg/mL | Cc1cc(C)c(C#N)c(SCc2ccc(C(=O)O)cc2)n1 |
| 1.5 µg/mL (≈ 5.65 µM) | CC(NC(=O)C1CC1)c1ccc(-c2ccccc2)cc1 (stereo unspecified) |
| > 43.1 µg/mL | CCOC(=O)C1Nc2ccc(C(=O)O)cc2C2C=CCC12 (stereo unspecified) |
| 1.1 µg/mL (≈ 3.56 µM) | Cc1ccccc1OCC(=O)Nc1ccc2oc(=O)ccc2c1 |
| 40.1 µg/mL (≈ 135 µM) | Cc1[nH]c2ccccc2c1C(C[N+](=O)[O-])c1cccc(O)c1 (stereo unspecified) |
| 16.8 µg/mL (≈ 53.8 µM) | O=C(CSc1ccc(C(F)(F)F)cn1)Nc1ccccc1 |
| > 42.2 µg/mL | Cc1ccc(CNS(=O)(=O)c2ccc(C)s2)cc1 |
| 31.8 µg/mL (≈ 107 µM) | Cc1ccc(C(=O)N2CCN(c3cccc(C)c3C)CC2)o1 |
| 23.7 µg/mL (≈ 74.4 µM) | Cc1ccc(CNC(=O)COC(=O)c2cccnc2Cl)cc1 |
| 13.9 µg/mL (≈ 46.9 µM) | Cc1ccc(NC(=O)Cn2c(=O)oc3ccccc32)c(C)c1 |
| < 0.3 µg/mL | Cc1cc(-c2onc(C)c2C(=O)Nc2ccc(C(F)(F)F)cc2)no1 |

| solubility kinetic | Compound |
| --- | --- |
| 44.7 µg/mL (≈ 143 µM) | O=C(COC(=O)C1=COCCO1)NCc1ccc(Cl)cc1 |
| 29.9 µg/mL (≈ 137 µM) | Clc1ccc(NCc2cccnc2)cc1 |
| 45.7 µg/mL (≈ 147 µM) | CC(=O)NC(CC(=O)NCCc1ccccc1)c1ccccc1 (stereo unspecified) |
| 10.7 µg/mL (≈ 31.3 µM) | CSc1cccc(NC(=O)COC(=O)C2(c3ccccc3)CC2)c1 |
| 49.1 µg/mL (≈ 138 µM) | Cc1ccc(C(=O)NCCCNC(=O)COc2ccc(C)c(C)c2)cn1 |
| 0.2 µg/mL (≈ 0.682 µM) | Cc1cccn2c(=O)c(C=O)c(NCc3ccccc3)nc12 |
| 41.3 µg/mL (≈ 132 µM) | CC1=C(C(=O)Nc2ccccc2)C(c2cccs2)NC(=O)N1 (stereo unspecified) |
| 2.1 µg/mL (≈ 6.42 µM) | CCOC(=O)c1ccc(NC(=O)C2COc3ccccc3O2)cc1 (stereo unspecified) |
| > 65 µg/mL | Cc1cc(NS(=O)(=O)c2ccc(NC(=O)c3ccc([N+](=O)[O-])s3)cc2)nc(C)n1 |
| > 44 µg/mL | CCC(=O)N1C(=O)C2(Nc3ccccc3N2)c2ccccc21 |
| > 49.8 µg/mL | O=C(CNC(=O)c1ccccc1)OCC(=O)c1ccccc1Cl |
| 56.3 µg/mL (≈ 132 µM) | CC1=CC(C)(C)Nc2ccc(OC(=O)CN3C(=O)c4cccc5cccc(c45)C3=O)cc21 |
| 42.1 µg/mL (≈ 141 µM) | O=C(Cc1cccs1)NCc1cccc(C(F)(F)F)c1 |
| < 0.3 µg/mL | Cc1ccccc1NC(=O)C(=O)c1cn(C)c2ccccc12 |
| > 44.7 µg/mL | NS(=O)(=O)c1ccc(NC(=O)COC(=O)C2CC2)cc1 |
| > 53.8 µg/mL | O=C(NCc1cccnc1)C(=O)NCC(c1ccco1)N1CCOCC1 (stereo unspecified) |
| 12.1 µg/mL (≈ 24.9 µM) | NS(=O)(=O)c1ccc(CCNC(=O)c2ccc(Cl)c(S(=O)(=O)N3CCCCC3)c2)cc1 |
| 34.3 µg/mL (≈ 98.3 µM) | CC(OC(=O)CCOc1ccccc1)C(=O)Nc1ccc(Cl)cn1 (stereo unspecified) |
| 3.5 µg/mL (≈ 7.63 µM) | O=C(COC(=O)c1cc(Cl)ccc1O)Nc1cc(C(F)(F)F)ccc1N1CCOCC1 |
| 9.5 µg/mL (≈ 31.7 µM) | CC(C)NC(=O)COc1ccc(OCc2ccccc2)cc1 |
